Values after ≈ are worked out from the molar mass of the structure shown.
Assays:
Test in all cases: In vitro antibacterial evaluation: minimum inhibitory concentration (MIC), broth dilution method
Type in all cases: cell-based
Enterococcus sp. = details: broth dilution, 5×10^5 CFU/mL, 18 hours at 35° C.
Method: (§1) The minimum inhibitory concentration (MIC), the lowest concentration of the antibiotic which inhibits growth of the test organism, is determined by the broth dilution method using Muller-Hinton II […] (Baltimore Biological Laboratories) following the recommendations of the National Committee for Clinical Laboratory Standards [Methods for dilution antimicrobial susceptibility tests for bacteria that grow aerobically, approved standard M7-A2, National Committee for Clinical Laboratory Standards, Villanova, Pa].
(§2) An inoculum level of 5×10^5 CFU/mL, and a range of antibiotic concentrations (64-0.06 μg/mL) is used. […] The test organisms include a spectrum of Gram-positive bacteria comprised of Staphylococcus sp., Streptococcus sp. and Enterococcus sp. These organisms include recent clinical isolates that are resistant to methicillin, penicillin and/or vancomycin.

Escherichia coli = details: 5×10^5 CFU/mL, 18 hours at 35° C.
Method: as §1, §2

Staphylococcus sp. = details: for MIC Staphylococcus aureus (ATCC 29213): strain ATCC 29213; for MIC Staphylococcus aureus (GC 1131): strain GC 1131; for MIC Staphylococcus aureus (GC 3051): strain GC 3051; for MIC Staphylococcus aureus (GC 3053): strain GC 3053; for MIC Staphylococcus aureus (GC 4541): strain GC 4541; for MIC Staphylococcus aureus (GC 4542): strain GC 4542; for MIC Staphylococcus aureus (GC 4544): strain GC 4544; for MIC Staphylococcus aureus (GC 4545): strain GC 4545
Method: as §1, §2

Streptococcus sp. = details: broth dilution, 5×10^5 CFU/mL, 18 hours at 35° C.
Method: as §1, §2

[1] = broth dilution, 5×10^5 CFU/mL, 18 hours at 35° C.
[2] = broth dilution, 18 hours at 35° C.

MIC Enterococccus avium (GC 4558) (Enterococcus sp.): 16 µg/mL (≈ 11.5 µM) | MIC Enterococccus faecalis (ATCC 29212) (Enterococcus sp.): 8 µg/mL (≈ 5.76 µM) | MIC Enterococccus faecalis (GC 2691) (Enterococcus sp.): 8 µg/mL (≈ 5.76 µM) | MIC Enterococccus faecalis (GC 3059) (Enterococcus sp.): 16 µg/mL (≈ 11.5 µM) | MIC Enterococccus faecalis (GC 4552) (Enterococcus sp.): 8 µg/mL (≈ 5.76 µM) | MIC Enterococccus faecalis (GC 4553) (Enterococcus sp.): 16 µg/mL (≈ 11.5 µM) | MIC Enterococccus faecalis (GC 4554) (Enterococcus sp.): 8 µg/mL (≈ 5.76 µM) | MIC Enterococccus faecalis (GC 6189) (Enterococcus sp.): 8 µg/mL (≈ 5.76 µM) | MIC Enterococccus faecium (GC 2243) (Enterococcus sp.): 8 µg/mL (≈ 5.76 µM) | MIC Enterococccus faecium (GC 4556) (Enterococcus sp.): 8 µg/mL (≈ 5.76 µM) | MIC Enterococccus faecium (GC 4557) (Enterococcus sp.): 4 µg/mL (≈ 2.88 µM) | MIC Enterococcus faecalis (GC 2242) (Enterococcus sp.): 8 µg/mL (≈ 5.76 µM) | MIC Escherichia coli (ATCC 25922) (Escherichia coli): >64 µg/mL | MIC Escherichia coli (GC 4559) (Escherichia coli): 32 µg/mL (≈ 23 µM) | MIC Escherichia coli (GC 4560) (Escherichia coli): 1 µg/mL (≈ 0.72 µM) | MIC Coagulase Negative Staphylococcus (GC 4547) (Staphylococcus sp.; [1]): 2 µg/mL (≈ 1.44 µM) | MIC Coagulase Negative Staphylococcus (GC 4548) (Staphylococcus sp.; [1]): 1 µg/mL (≈ 0.72 µM) | MIC Coagulase Negative Staphylococcus (GC 4549) (Staphylococcus sp.; [1]): 1 µg/mL (≈ 0.72 µM) | MIC Coagulase Negative Staphylococcus (GC 4551) (Staphylococcus sp.; [1]): 2 µg/mL (≈ 1.44 µM) | MIC Coagulase Negative Staphylococcus (GC 6257) (Staphylococcus sp.; [1]): 1 µg/mL (≈ 0.72 µM) | MIC Staphylococcus aureus-SMITH (GC 4543) (Staphylococcus sp.; [1]): 2 µg/mL (≈ 1.44 µM) | MIC Staphylococcus aureus (ATCC 29213) (Staphylococcus sp.): 4 µg/mL (≈ 2.88 µM) | MIC Staphylococcus aureus (ATCC 29213) (Staphylococcus sp.; [2]): 4 µg/mL (≈ 2.88 µM) | MIC Staphylococcus aureus (GC 1131) (Staphylococcus sp.): 2 µg/mL (≈ 1.44 µM) | MIC Staphylococcus aureus (GC 1131) (Staphylococcus sp.; [2]): 2 µg/mL (≈ 1.44 µM) | MIC Staphylococcus aureus (GC 3051) (Staphylococcus sp.): 2 µg/mL (≈ 1.44 µM) | MIC Staphylococcus aureus (GC 3051) (Staphylococcus sp.; [2]): 2 µg/mL (≈ 1.44 µM) | MIC Staphylococcus aureus (GC 3053) (Staphylococcus sp.): 4 µg/mL (≈ 2.88 µM) | MIC Staphylococcus aureus (GC 3053) (Staphylococcus sp.; [2]): 4 µg/mL (≈ 2.88 µM) | MIC Staphylococcus aureus (GC 4541) (Staphylococcus sp.): 2 µg/mL (≈ 1.44 µM) | MIC Staphylococcus aureus (GC 4541) (Staphylococcus sp.; [2]): 2 µg/mL (≈ 1.44 µM) | MIC Staphylococcus aureus (GC 4542) (Staphylococcus sp.): 2 µg/mL (≈ 1.44 µM) | MIC Staphylococcus aureus (GC 4542) (Staphylococcus sp.; [2]): 2 µg/mL (≈ 1.44 µM) | MIC Staphylococcus aureus-SMITH (GC 4543) (Staphylococcus sp.; strain GC 4543, broth dilution, 18 hours at 35° C.): 2 µg/mL (≈ 1.44 µM) | MIC Staphylococcus aureus (GC 4544) (Staphylococcus sp.): 4 µg/mL (≈ 2.88 µM) | MIC Staphylococcus aureus (GC 4544) (Staphylococcus sp.; [2]): 4 µg/mL (≈ 2.88 µM) | MIC Staphylococcus aureus (GC 4545) (Staphylococcus sp.): 2 µg/mL (≈ 1.44 µM) | MIC Staphylococcus aureus (GC 4545) (Staphylococcus sp.; [2]): 2 µg/mL (≈ 1.44 µM) | MIC Coagulase Negative Staphylococcus (GC 4547) (Staphylococcus sp.; strain GC 4547, broth dilution, 18 hours at 35° C.): 2 µg/mL (≈ 1.44 µM) | MIC Coagulase Negative Staphylococcus (GC 4548) (Staphylococcus sp.; strain GC 4548, broth dilution, 18 hours at 35° C.): 1 µg/mL (≈ 0.72 µM) | MIC Coagulase Negative Staphylococcus (GC 4549) (Staphylococcus sp.; strain GC 4549, broth dilution, 18 hours at 35° C.): 1 µg/mL (≈ 0.72 µM) | MIC Coagulase Negative Staphylococcus (GC 4551) (Staphylococcus sp.; strain GC 4551, broth dilution, 18 hours at 35° C.): 2 µg/mL (≈ 1.44 µM) | MIC Coagulase Negative Staphylococcus (GC 6257) (Staphylococcus sp.; strain GC 6257, broth dilution, 18 hours at 35° C.): 1 µg/mL (≈ 0.72 µM) | MIC Streptococcus agalactiae (GC 4564) (Streptococcus sp.): 0.5 µg/mL (≈ 0.36 µM) | MIC Streptococcus pneumoniae (GC 1894) (Streptococcus sp.): 0.12 µg/mL (≈ 0.0864 µM) | MIC Streptococcus pneumoniae (GC 4565) (Streptococcus sp.): 0.25 µg/mL (≈ 0.18 µM) | MIC Streptococcus pneumonine (ATCC 6301) (Streptococcus sp.): 0.25 µg/mL (≈ 0.18 µM) | MIC Streptococcus pyogenes (GC 4563) (Streptococcus sp.): 0.5 µg/mL (≈ 0.36 µM)
Compound: CC(c1ccccc1)C1NC(=O)CNC(=O)C(CO)NC(=O)C(C(O)C2CNC(=N)N2C2OC(CO)C(O)C(O)C2O)NC(=O)C(C(O)C2CNC(=N)N2)NC(=O)C(Cc2ccc(OC3OC(CO)C(OC4OC5COC(c6cccs6)OC5C(O)C4O)C(O)C3O)cc2)NC1=O (stereo not drawn) [Example 132, Cyclo[glycyl-β-methylphenylalanyl-O-[4-O-[4,6-O-(2-thienylmethylene)hexopyranosyl]-hexopyranosyl]tyrosyl-3-(2-iminoimidazolidin-4-yl)seryl-3-(3-hexopyranosyl-2-iminoimidazolidin-4-yl)serylseryl]]
MIC Staphylococcus haemolyticus (GC 4546) (Staphylococcus sp.; [1]): 1 µg/mL (≈ 0.72 µM) | MIC Staphylococcus haemolyticus (GC 4546) (Staphylococcus sp.; strain GC 4546, broth dilution, 18 hours at 35° C.): 1 µg/mL (≈ 0.72 µM)

Reference: patent US8247211B2, “Glycopeptide antibiotics” (American Cyanamid Company, priority 2001, dated 2012)
